In patent publication US9439882B2, “Compounds and compositions for the treatment of cancer” (PROMETIC BIOSCIENCES, INC., priority 2010, dated 2016):

Legend:
[1] = test system: human prostate PC-3 tumor; experiment: Xenograft human prostate PC-3 tumor in mice; type: in vivo; conditions: cyclophosphamide alone; p≦0.05; FIG. 15
Description: The xenogenic human prostate tumor PC-3 was obtained from ATCC (CRL1435). PC-3 cells were grown in RPMI-1640 containing 10% fetal bovine serum. At day 0, 50 μL of viable PC-3 (1.5 to 2×10^6) cells were subcutaneously injected to produce localized tumors in 6- to 8-week old male CD1 nu/nu mice. The animals were then serially monitored by manual palpation for evidence of tumor. […] Mice were sacrificed at day 56. Serial tumor volume was obtained by bi-dimensional diameter measurements with calipers, using the formula 0.4 (a×b^2) where “a” was the major tumor diameter and “b” the minor perpendicular diameter.

CTGF production [2] = experiment: Inhibition of TGF-induced CTGF production in NHDF (ELISA); type: cell-based; conditions: Homo sapiens, 10 ng/mL TGF-β, 48 h
Description: (§1) The effect of selected compounds on CTGF production was undertaken in normal human dermal fibroblast (NHDF) or human mesangial cells. Cells were cultured in DMEM (0.5% FBS) with or without 10 ng/mL of TGF-β for 48 h in a humidified atmosphere of 95% air-5% carbon dioxide at 37° C. CTGF measurement in the culture medium was measured using the CTGF ELISA according to the manufacturer (Prepotech) recommendations.

P815 mastocytoma = experiment: Primary P815 mastocytoma tumor growth in mice; type: in vivo
Source text: The syngeneic tumor P815 is a DBA/2 (H-2^d)-derived mastocytoma obtained from ATCC (TIB64). […] Mice were sacrificed around day 23 (depending on the experiment). […] Tumors were palpable, in general, 3-5 days post-inoculation.

HK-2 cells = experiment: TGF-β induced epithelial to mesenchymal transition in HK-2 cells (real-time PCR of E-cadherin, CTGF, collagen 1); type: cell-based, human; conditions: for TGF-β induced EMT: HK-2 cells; for TGF-β induced EMT / CTGF transcript expression / collagen 1 transcript expression / basal expression of CTGF / basal expression of collagen 1: sodium decanoate and Compound I at 0.5 mM; for CTGF transcript expression / collagen 1 transcript expression: TGF-β-stimulated cells; for basal expression of CTGF / basal expression of collagen 1: compound alone, no TGF-β
Description: (§2) FIG. 20 is a bar graph showing the effect of Compound XVII on E-cadherin in normal HK-2 cells and in TGF-β induced EMT cells. Real-time PCR using human E-cadherin TaqMan® Gene Expression Assay normalized to human GAPDH endogenous control; reference is TGF-δ-treated cells 24 h (RQ=1). *means p<0.05, and ** means p<0.01 (t-test).
as §2, with “FIG. 21” for “FIG. 20”, “on CTGF” for “on E-cadherin”, “human CTGH” for “human E-cadherin”, “is TGF-β-treated” for “is TGF-δ-treated”
FIG. 22 is a bar graph showing the effect of Compound XVII on collagen 1 in normal HK-2 cells and in TGF-β induced EMT cells. Real-time PCR using human Collagen 1 TaqMan® Gene Expression Assay normalized to human GAPDH endogenous control; reference is TGF-β-treated cells 24 h (RQ=1). ** means p<0.01 (t-test).
Real-time PCR using human CTGF TaqMan® Gene Expression Assay and Collagen 1 TaqMan® Gene Expression Assay normalized to human GAPDH endogenous control; reference is TGF-β-treated cells 24 h (RQ=1).
FIG. 24 is a bar graph showing the effect of Compound I on CTGF and collagen 1 expression in normal HK-2 cells and in TGF-β induced EMT cells. Real-time PCR using human CTGF TaqMan® Gene Expression Assay and Collagen 1α1 TaqMan® Gene Expression Assay normalized to human GAPDH endogenous control; reference is TGF-β-treated cells 24 h (RQ=1). Compound I is added at 0.5 mM.
Further analysis was undertaken to determine the effect of Compoounds on EMT. The effect of Compound XVII on TGF-β induced EMT was analyzed on human epithelial […] cells (HK-2). To assess the progression of EMT, the pro-epithelial marker E-cadherin and the mesenchymal/pro-fibrotic markers CTGF and collagen 1 were assayed by quantitative real-time PCR. To determine the efficacy of Compound XVII in inhibiting TGF-β-induced EMT, verification of the ability of TGF-β to induce EMT in HK-2 cells.

P815 liver metastasis = P815 liver metastasis in mice; type: in vivo; conditions: for reduction of mice with liver metastasis: oral 200 mg/kg, p<0.05, FIG. 9 and 10
Description: The syngeneic tumor P815 is a DBA/2 (H-2^d)-derived mastocytoma obtained from ATCC (TIB64). P815 cells were grown in DMEM containing 10% fetal bovine serum. At day 0, 50 μL of 5×10^5 viable P815 cells were subcutaneously injected to produce localized tumors in 6- to 8-week old DBA/2 mice. The animals were then serially monitored by manual palpation for evidence of tumor. […] Mice were sacrificed around day 23 (depending on the experiment). Serial tumor volume was obtained by bi-dimensional diameter measurements with calipers, using the formula 0.4 (a×b^2) where “a” was the major tumor diameter and “b” the minor perpendicular diameter. Tumors were palpable, in general, 3-5 days post-inoculation.
It is known that P815 cells have the capacity to metastasize to the liver.

IL-12 production = IL-12 production in LPS-stimulated RAW264.7 cells (ELISA); type: cell-based; conditions: 100 ng/mL LPS, 21 h; for IL-12: compound 0.5 mM
Description: The effect of selected compounds on IL-12 production was undertaken in RAW264.7 (macrophage-like) cells. RAW264.7 cells were cultured with 100 ng/mL of LPS in presence or absence of compounds for 21 h in a humidified atmosphere of 95% air-5% carbon dioxide at 37° C. IL-12 concentration in the culture medium was measured using the IL-12 ELISA according to the manufacturer (BD Biosciences) recommendations. […] Compounds have no effect on IL-12 production in the absence of LPS.

[3] = test system: Panc02 pancreatic adenocarcinoma; experiment: Orthotopic Panc02 pancreatic cancer model, survival; type: in vivo; conditions: C57BL/6 mice; gemcitabine i.p. 50 mg/kg once a week, Compound XV oral 200 mg/kg daily; control 50 days; FIG. 4
Description: Syngeneic Panc02 is a pancreatic adenocarcinoma tumor cell line obtained from NCI (0507232). Panc02 cells are positive for Ki-Ras, p53, HerNEU and CDK. Panc02 were grown in RPMI-1640 containing 10% fetal bovine serum. At day 0, 50 μL of 5×10^5 viable Panc02 cells were injected into the tail of the pancreas in 6- to 8-week old C57BL/6 mice. Mice were then treated every day with oral administration of vehicle (saline, negative control), or Compound XV and with intraperitoneal injection of gemcitabine (50 mg/kg) once a week starting at day 8.

LL/2 lung tumor = LL/2 lung tumor in mice; type: in vivo; conditions: sodium decanoate oral 200 mg/kg daily; gemcitabine i.p. 50 mg/kg day 1, 8, 15, 22; FIG. 11
Source text: The syngeneic tumor LL/2 is a lung tumor cell line obtained from ATCC (CRL-1642). […] Mice were sacrificed at day 26. […] Tumors were palpable, in general, 3-5 days post-inoculation.

B16F10 melanoma cells = experiment: Primary B16F10 melanoma tumor in mice; type: in vivo; conditions: C57BL/6 mice; sodium decanoate 100 mg/kg oral daily, doxorubicin 5 mg/kg (subtherapeutic dose); FIG. 3
Description: Female 6-8 week old C57BL/6 mice were injected subcutaneously on day 0 with 50 μL of 3.75×10^4 viable B16F10 melanoma cells from ATCC (source of cell culture, Dr. I. J. Fidler). On day 14, tumors reached […] and animals were randomized for treatment. […] Mice were sacrificed on day 12.

CT-26WT colon tumor = experiment: Primary colon CT-26WT tumor in mice; type: in vivo; conditions: sodium decanoate oral 200 mg/kg daily; 5-fluorouracil i.p. 40 mg/kg day 6, 13, 20; Compound XV oral; FIG. 12 and 13
Description: The syngeneic tumor CT-26WT (CT-26) is a colon tumor cell line obtained from ATCC (CRL-2638). CT-26 cells were grown in RPMI containing 10% fetal bovine serum. At day 0, 50 μL of 5×10^6 viable CT-26 cells were subcutaneously injected to produce localized tumors in 6- to 8-week old mice. The animals were then serially monitored by manual palpation for evidence of tumor. […] Mice were sacrificed at day 25. Serial tumor volume was obtained by bi-dimensional diameter measurements with calipers, using the formula 0.4 (a×b^2) where “a” was the major tumor diameter and “b” the minor perpendicular diameter. Tumors were palpable, in general, 3-5 days post-inoculation.

Panc02 pancreatic cancer = experiment: Subcutaneous Panc02 pancreatic tumor growth; type: in vivo, mice; conditions: from day 34-39; oral; p<0.05; FIG. 16
CTGF production [4] = experiment: Inhibition of TGF-induced CTGF production in human mesangial cells (ELISA); type: cell-based; conditions: FIG. 2
Description: as §1

## O=P1(N(CCCl)CCCl)NCCCO1 (stereo not shown) [Cyclophosphamide, cyclophosphamide]
[1]
  tumor growth T/C: 42-78%

## CCCCCCCCC(Oc1ccc(C(=O)CCCCCCC)cc1)C(=O)[O-].[Na+] (racemic) [Compound XVII, Sodium (RS)-2-[4-octanoylphenoxy]decanoate]
CTGF production [2]; 7.5 μM
  inhibition at 7.5 µM: 40%
P815 mastocytoma; FIG. 17
  P815 tumor growth: significant reduction (p<0.05)
  efficacy compared with soluble acetylsalicylic acid: better efficacy to the gold standard compound
HK-2 cells
  TGF-β induced EMT: significantly inhibited
  basal expression of CTGF: downregulate
  basal expression of collagen 1: downregulate
HK-2 cells; TGF-β induced EMT cells, 24 h, normalized to GAPDH, FIG. 20
  E-cadherin transcript expression: upregulation
HK-2 cells; 24 h, normalized to GAPDH
  CTGF transcript expression: downregulation
  collagen 1 transcript expression: downregulation
P815 liver metastasis; 50 mg/kg, FIG. 18
  reduction of the number of mice with liver metastasis: approximately 20%
IL-12 production; compound 0.05 mM
  IL-12 (pg/mL): 209 (at 0.05 mM) pg/mL

## Nc1ccn([C@@H]2O[C@H](CO)[C@@H](O)C2(F)F)c(=O)n1 [gemcitabine, reference compound]
[3]
  median survival: 68.5 days
LL/2 lung tumor
  efficacy on primary tumor LL/2 (single agent): weak efficacy

## COc1cccc2c1C(=O)c1c(O)c3c(c(O)c1C2=O)C[C@@](O)(C(=O)CO)C[C@@H]3O[C@H]1C[C@H](N)[C@H](O)[C@H](C)O1 [doxorubicin, reference compound]
B16F10 melanoma cells
  reduction of primary tumor volume compared to the control: around 25%

## CCCCCCCCCC(=O)[O-].[Na+] [Sodium decanoate]
CT-26WT colon tumor
  efficacy on primary tumor CT-26 (single agent): weak efficacy
CTGF production [2]; 500 μM
  inhibition at 500 µM: 51%
P815 mastocytoma; DBA/2 mice, oral 40-200 mg/kg every day, FIG. 6
  P815 tumor growth: significant reduction (p<0.05)
P815 mastocytoma; oral 200 mg/kg, FIG. 7 and 8
  P815 tumor growth: significant reduction (p<0.05)
HK-2 cells
  TGF-β induced EMT: significant inhibition
  basal expression of CTGF: reduction
  basal expression of collagen 1: reduction
HK-2 cells; 24 h, normalized to GAPDH
  CTGF transcript expression: reduction
  collagen 1 transcript expression: reduction
Panc02 pancreatic cancer
  tumor growth Treated/Control (T/C): 60-70%
B16F10 melanoma cells
  reduction of primary tumor volume compared to the control: around 25%
P815 liver metastasis
  reduction of mice with liver metastasis: 50%
IL-12 production
  IL-12: 50 pg/mL
LL/2 lung tumor
  efficacy on primary tumor LL/2 (single agent): weak efficacy

## CCCCCc1cccc(CC(=O)[O-])c1.[Na+] [Compound I, Sodium Salt of (3-pentylphenyl)Acetic Acid]
CTGF production [2]; 200 μM
  inhibition at 200 µM: 54%
P815 mastocytoma; oral 200 mg/kg, FIG. 7 and 8
  P815 tumor growth: significant reduction (p<0.05)
HK-2 cells
  TGF-β induced EMT: significant inhibition
  basal expression of CTGF: reduction
  basal expression of collagen 1: reduction
HK-2 cells; 24 h, normalized to GAPDH
  CTGF transcript expression: reduction
  collagen 1 transcript expression: reduction
CTGF production [4]
  inhibition of TGF-induced CTGF production: significant (p<0.05) inhibition
IL-12 production
  IL-12: 54 pg/mL

## O=C([O-])CCc1ccc(NCc2cccc(Oc3ccccc3)c2)cc1.[Na+] [Compound XV, 3-(4-(3-phenoxy-benzylamino)phenyl) propionic acid]
CT-26WT colon tumor
  efficacy on primary tumor CT-26 (single agent): weak efficacy
CTGF production [2]; 20 μM
  inhibition at 20 µM: 22%
P815 mastocytoma; oral 200 mg/kg, FIG. 7 and 8
  P815 tumor growth: significant reduction (p<0.05)
P815 liver metastasis
  reduction of mice with liver metastasis: 50%
IL-12 production
  IL-12: 37 pg/mL
